Experimental data taken from the supplement of paper PMC10307832.

Compound: CCOC(=O)CCNc1cc(N2CCc3ccccc3CC2)nc(-c2ccccn2)n1 [GSK-J4] + O=C(CCCCCCC(=O)Nc1ccccc1)NO [Vorinostat] (partner 1 µM)
Assay: relative viability (nuclei count vs DMSO), 5 days (fraction); higher = more cells survive
Settings: first compound 0.5 µM
How it was run: (§1)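 Lung cancer cell lines, seeded in 1536-well plates, were treated the following day by pin tool with a single drug or with five library-drug doses (not always all listed) in √10 steps on top of a fixed anchor-drug dose. Cells were fixed and nuclei stained in one step after 5 days, and nuclei were counted. Relative viability is the nuclei count for treated wells divided by that for vehicle wells, reported as medians of duplicate plates.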

Cell Line	relative viability
NCI-H2085	0.767
A-427	0.814
NCI-H520	0.644
NCI-H838	0.721
NCI-H596	0.743
NCI-H3122	0.984
BEN	0.559
NCI-H1395	1.11
201T	0.927
NCI-H1993	1.15
NCI-H1355	0.654
NCI-H2405	0.973
NCI-H1437	0.827
NCI-H661	0.833
COR-L 105	0.899
H3255	0.716
NCI-H2347	0.605
NCI-H1975	0.662
NCI-H441	0.716
NCI-H1650	0.567
NCI-H1915	0.452
NCI-H2087	0.638
NCI-H1793	0.942
RERF-LC-KJ	0.679
EMC-BAC-2	0.494
LCLC-97TM1	0.684
NCI-H1651	0.607
NCI-H2170	0.813

Same assay, conditions: first compound 1.581 µM

Cell Line	relative viability
CAL-12T	0.693
HCC-15	0.791
HOP-62	0.355
LU99A	0.344
NCI-H2085	0.731
A-427	0.518
NCI-H520	0.527
NCI-H838	0.717
NCI-H596	0.475
NCI-H3122	0.876
BEN	0.46
NCI-H1395	0.813
201T	0.828
NCI-H1993	0.708
NCI-H1355	0.588
NCI-H2405	0.925
NCI-H1437	0.608
NCI-H661	0.687
NCI-H2347	0.558
NCI-H1975	0.689
NCI-H441	0.602
NCI-H1650	0.501
NCI-H1915	0.481
NCI-H2087	0.68
NCI-H1793	0.586
RERF-LC-KJ	0.534
EMC-BAC-2	0.497
LCLC-97TM1	0.442
NCI-H1651	0.537
NCI-H2170	0.677

Same assay, conditions: first compound 5 µM

Cell Line	relative viability
CAL-12T	0.874
HCC-15	0.789
HOP-62	0.585
NCI-H460	0.623
NCI-H2085	0.697
NCI-H520	0.69
NCI-H838	0.401
NCI-H596	0.654
NCI-H3122	0.966
BEN	0.511
NCI-H1395	0.625
201T	0.939
NCI-H1993	0.804
NCI-H1355	0.51
NCI-H1437	0.715
NCI-H661	0.821
COR-L 105	0.833
H3255	0.656
NCI-H2347	0.586
NCI-H1975	0.637
NCI-H441	0.779
NCI-H1650	0.663
NCI-H2087	0.544
NCI-H1793	0.663
RERF-LC-KJ	0.576
LCLC-97TM1	0.681
NCI-H1651	0.558
NCI-H2170	0.803

Same assay, conditions: first compound 15.81 µM

Cell Line	relative viability
CAL-12T	0.689
HCC-15	0.718
HOP-62	0.507
NCI-H460	0.67
LU99A	0.476
NCI-H2085	0.634
A-427	0.785
NCI-H520	0.659
NCI-H838	0.695
NCI-H596	0.503
NCI-H3122	0.905
BEN	0.571
NCI-H1395	0.594
201T	0.896
NCI-H1993	0.601
NCI-H1355	0.478
NCI-H2405	0.923

Cell Line	relative viability
NCI-H1437	0.706
NCI-H661	0.728
COR-L 105	0.843
H3255	0.742
NCI-H2347	0.518
NCI-H1975	0.632
NCI-H441	0.714
NCI-H1650	0.48
NCI-H1915	0.417
NCI-H2087	0.842
NCI-H1793	0.358
RERF-LC-KJ	0.613
EMC-BAC-2	0.364
LCLC-97TM1	0.507
NCI-H1651	0.448
NCI-H2170	0.638

Same assay, conditions: first compound 50 µM

Cell Line	relative viability
CAL-12T	0.682
HCC-15	0.503
HOP-62	0.35
NCI-H460	0.656
LU99A	0.319
NCI-H2085	0.728
A-427	0.393
NCI-H520	0.648
NCI-H838	0.57
NCI-H596	0.365
NCI-H3122	0.986
BEN	0.505
NCI-H1395	0.62
201T	0.891
NCI-H1993	0.409
NCI-H1355	0.469
NCI-H2405	0.974

Cell Line	relative viability
NCI-H1437	0.305
NCI-H661	0.608
COR-L 105	0.526
H3255	0.742
NCI-H2347	0.538
NCI-H1975	0.71
NCI-H441	0.715
NCI-H1650	0.286
NCI-H1915	0.483
NCI-H2087	0.811
NCI-H1793	0.284
RERF-LC-KJ	0.485
EMC-BAC-2	0.457
LCLC-97TM1	0.578
NCI-H1651	0.464
NCI-H2170	0.761

Compound: CN1CCC(CC1)OC2=CC(=C(C=C2)NC3=NC=C4C(=N3)N(C(=O)N4C)C5CCCC5)OC [AZ3146] + Cc1cc(Nc2cc(N3CCN(C)CC3)nc(Sc3ccc(NC(=O)C4CC4)cc3)n2)n[nH]1 [Tozasertib] (partner 0.1 µM)
Assay: as above
Settings: first compound 0.08 µM
How it was run: as §1

Cell Line	relative viability
CAL-12T	0.263
HCC-15	0.374
HOP-62	0.325
NCI-H460	0.277
LU99A	0.279
NCI-H2085	0.747
A-427	0.2
NCI-H520	0.345
NCI-H838	0.249
NCI-H596	0.949
NCI-H3122	0.397
BEN	0.402
NCI-H1395	0.647
201T	0.612
NCI-H1993	0.544
NCI-H1355	0.371
NCI-H2405	0.609

Cell Line	relative viability
NCI-H1437	0.355
NCI-H661	0.359
COR-L 105	0.409
H3255	0.598
NCI-H2347	0.399
NCI-H1975	0.684
NCI-H441	0.676
NCI-H1650	0.345
NCI-H1915	0.409
NCI-H2087	0.215
NCI-H1793	0.315
RERF-LC-KJ	0.465
EMC-BAC-2	0.222
LCLC-97TM1	0.206
NCI-H1651	0.597
NCI-H2170	0.593

Same assay, conditions: first compound 0.253 µM

Cell Line	relative viability
CAL-12T	0.3
HCC-15	0.426
HOP-62	0.447
NCI-H460	0.422
LU99A	0.269
NCI-H2085	0.786
A-427	0.191
NCI-H520	0.433
NCI-H838	0.252
NCI-H596	0.972
NCI-H3122	0.345
BEN	0.509
NCI-H1395	0.832
201T	0.858
NCI-H1993	0.548
NCI-H1355	0.573
NCI-H2405	0.784

Cell Line	relative viability
NCI-H1437	0.42
NCI-H661	0.362
COR-L 105	0.335
H3255	0.475
NCI-H2347	0.529
NCI-H1975	0.732
NCI-H441	0.701
NCI-H1650	0.349
NCI-H1915	0.483
NCI-H2087	0.31
NCI-H1793	0.34
RERF-LC-KJ	0.497
EMC-BAC-2	0.269
LCLC-97TM1	0.216
NCI-H1651	0.793
NCI-H2170	0.838

Same assay, conditions: first compound 0.8 µM

Cell Line	relative viability
CAL-12T	0.209
HCC-15	0.263
HOP-62	0.345
NCI-H460	0.118
LU99A	0.248
NCI-H2085	0.727
A-427	0.157
NCI-H520	0.371
NCI-H838	0.254
NCI-H596	0.979
NCI-H3122	0.307
BEN	0.493
NCI-H1395	0.888
201T	0.837
NCI-H1993	0.6
NCI-H1355	0.485
NCI-H2405	0.63

Cell Line	relative viability
NCI-H1437	0.394
NCI-H661	0.357
COR-L 105	0.304
H3255	0.61
NCI-H2347	0.461
NCI-H1975	0.275
NCI-H441	0.595
NCI-H1650	0.242
NCI-H1915	0.367
NCI-H2087	0.236
NCI-H1793	0.296
RERF-LC-KJ	0.403
EMC-BAC-2	0.307
LCLC-97TM1	0.208
NCI-H1651	0.465
NCI-H2170	0.644

Same assay, conditions: first compound 2.53 µM

Cell Line	relative viability
CAL-12T	0.247
HCC-15	0.221
HOP-62	0.348
NCI-H460	0.0719
LU99A	0.238
NCI-H2085	0.587
A-427	0.19
NCI-H520	0.423
NCI-H838	0.263
NCI-H596	0.728
NCI-H3122	0.344
BEN	0.512
NCI-H1395	0.791
201T	0.651
NCI-H1993	0.544
NCI-H1355	0.404
NCI-H2405	0.577

Cell Line	relative viability
NCI-H1437	0.354
NCI-H661	0.347
COR-L 105	0.293
H3255	0.646
NCI-H2347	0.744
NCI-H1975	0.208
NCI-H441	0.588
NCI-H1650	0.314
NCI-H1915	0.381
NCI-H2087	0.17
NCI-H1793	0.192
RERF-LC-KJ	0.294
EMC-BAC-2	0.277
LCLC-97TM1	0.228
NCI-H1651	0.552
NCI-H2170	0.561

Same assay, conditions: first compound 8 µM

Cell Line	relative viability
CAL-12T	0.235
HCC-15	0.102
HOP-62	0.291
NCI-H460	0.0801
LU99A	0.245
NCI-H2085	0.508
A-427	0.205
NCI-H520	0.408
NCI-H838	0.183
NCI-H596	0.524
NCI-H3122	0.228
BEN	0.406
NCI-H1395	0.522
201T	0.473
NCI-H1993	0.51
NCI-H1355	0.359
NCI-H2405	0.397

Cell Line	relative viability
NCI-H1437	0.265
NCI-H661	0.358
COR-L 105	0.309
H3255	0.196
NCI-H2347	0.464
NCI-H1975	0.227
NCI-H441	0.266
NCI-H1650	0.255
NCI-H1915	0.351
NCI-H2087	0.175
NCI-H1793	0.254
RERF-LC-KJ	0.25
EMC-BAC-2	0.233
LCLC-97TM1	0.146
NCI-H1651	0.297
NCI-H2170	0.266
